Experiments:
[1] = Photophysical characterization (UV-Vis absorption, isomerization under blue light); type: physicochemical
Text: (§1) The Ziapin 2 molecule (FIG. 1a) in DMSO has a strong absorption peak centered at 470 nm (FIG. 1b) and a peak at 330nm, attributed respectively to the transitions n→Π* and Π→Π* of the E isomer. […] Azobenzene fluorescence is also an ideal tool for monitoring the switch behavior of photoreponsive materials, as well as the localization and photodynamics in living cells. The decrease of Ziapin 2 time-dependent fluorescence following exposure to blue light in DMSO solution (FIG. 1c) is related to the weakening of the photoluminescence of the E conformer due to the photoisomerization reaction. Time-dependent fluorescence measurements (FIG. 1d) indicate a clear “photo-switching” dynamics of azobenzene in living HEK293 cells, with estimated isomerization/relaxation degrees of 0.01 cm^2J^−1 and 0.0085s^−1. […] An analogous characterization was performed with the Ziapin 1 molecule (FIG. 1e,f).
The isomerization reaction for the compound NO2/1C6Py is not observed, since in this case the nitro-azobenzene having a push-pull configuration has a rapid thermal relaxation (>ns) which hinders the appearance of the absorption of the cis isomer in the investigated temporal regime (Bandara et al., Chem. Soc. Rev., 2012, 41, 1809-1825).

[2] = tested on: HEK293 cells; assay: Time-dependent fluorescence photo-switching dynamics in living HEK293 cells; type: cell-based
Protocol: FIG. 1: (a) scheme of the isomerization process of a compound according to the present invention. Absorption (b) and emission (c) spectra of the compound Ziapin 2 25 μM in DMSO. (d) photoswitching dynamics of Ziapin 2 in water, DMSO and in HEK293 cells. (e, f) absorption and photoluminescence of Ziapin 1 25 μM in DMSO (e) and evolution of the absorption peak at 470 nm by illuminating with a diode at 450 nm (f).
as §1

[3] = tested on: primary neurons; assay: Compound localization testing by confocal microscopy (Cell Mask, Vybrant markers); type: cell-based; conditions: for coverage of the cell surface / fraction of compound located in plasma membranes and in lipid rafts: primary neurons, confocal microscopy
Text: FIG. 4: confocal microscopy images showing the localization of the Ziapin 2 molecule in the vicinity of the plasma membranes (a) and in the lipid rafts (b) of primary neurons.
FIG. 5: confocal microscopy images showing the localization of the Ziapin 1 molecule in the vicinity of the plasma membranes (a) and in the lipid rafts (b) of primary neurons.
Molecules tend to localize in cell membranes and change their conformation. […] The targeting of both molecules at the plasma membrane level was analyzed in cultures of primary neurons using specific markers for the cell membrane (Cell Mask, FIG. 4a, FIG. 5a, respectively) or for lipid rafts, membrane areas rich in cholesterol and ion channels (Vybrant, FIG. 4b, FIG. 5b, respectively).

[4] = tested on: primary neurons; assay: Electrophysiology (current-clamp) on primary neurons under light stimulation; type: cell-based
Protocol: FIG. 6: electrophysiology conducted on HEK293 cells (a, b), primary neurons in the absence (c, d) or in the presence of synaptic blockers (e, f) treated with Ziapin 2 and under illumination. (a) Representative average current-clamp traces recorded from HEK293 cells incubated with DMSO 0.25% (v/v) (Ctrl; black line) or 25 μM Ziapin 2 in DMSO (gray line) and photostimulated for 20 ms (top) or 200 ms (bottom) (wavelength 470 nm, light power density of 47 mW/mm^2, shaded areas in gray). (b) Average hyperpolarization and subsequent depolarization in HEK293 cells. (c, d) Representative current-clamp traces of passive (hyperpolarization/depolarization, left) and active (action potentials, right) responses recorded from neurons incubated in DMSO 0.25% (v/v) (Ctrl; black line) or with 5 μM Ziapin 2 in DMSO (gray line) in the absence (c) or presence (e) of synaptic blockers. The duration of light stimulation (20 and 200 ms, respectively) is indicated as a shaded area (wavelength 470 nm, light power density of 20 mW/mm^2). (d, f) Quantification of the hyperpolarization (left) and depolarization (right) peak in primary neurons exposed to DMSO or Ziapin 2 in the absence (d) or presence (f) of synaptic blockers and subjected to 20 or 200 ms of light stimulation.
FIG. 7: modulation of membrane capacitance and conductance in primary neurons following light stimulation. Representative traces of capacity (a) and conductance (b) recorded in current-clamp from primary neurons incubated with 0.25% (v/v) DMSO (Ctrl; black line) or 5 μM Ziapin 2 in DMSO (gray line) in the presence of synaptic and photostimulated blockers with 20 ms (left) or 200 ms (right) (wavelength 470 nm, light power density of 20 mW/mm^2, shaded areas). (c, d) Quantification of peak capacity (c) and conductance (d) variations evoked by light stimuli of 20 and 200 ms.
FIG. 8: effect of Ziapin 1 on passive and active membrane properties in primary hippocampal neurons. […] (a) Quantification of hyperpolarization (left) and depolarization (right) in response to light stimulation for 20/200 ms. […]

[5] = tested on: somatosensory cortex; assay: Cortical responses evoked by light in vivo (LFP recordings after stereotaxic injection); design: species or system mice
Protocol: FIG. 9: cortical responses evoked by light in vivo in the somatosensory cortex of mice exposed to Ziapin 2. (a) Schematic representation of the stereotaxic injection of Ziapin 2 (200 mM in 1 μl of 10% DMSO) in the somatosensory cortex (S1ShNc, 2 mm anterior to lambda, 2 mm lateral to the midline and −723 μm ventral to the brain surface) and of the 16-fiber optic coupled microelectrode system for photostimulation and field potential recordings (LFP). (b) Representative LFP recordings evoked in the somatosensory cortex with light stimulation of 20 and 200 ms (43 mW/mm^2) in mice injected with DMSO (black line) or Ziapin 2 (gray line). The shaded areas represent light stimulation. (c) Dose-response analysis of LFPs in mice injected with DMSO (black line) or Ziapin 2 (gray line) depending on the power and duration of photostimulation.
The objective was to investigate whether the light-dependent modulation of neuronal activity observed in vitro occurred also in vivo. The electrophysiological recordings were obtained by implanting an array of 16 microelectrodes coupled to an optical fiber for photostimulation. […] The response peaked at around 200 ms following the light stimulus (FIGS. 9c and d).

Row | Compound | strong absorption peak ([1]; in DMSO, E isomer, transition n→Π*) [nm] | absorption peak ([1]; in DMSO, E isomer, transition Π→Π*) [nm] | estimated isomerization degree [2] [cm^2J^−1] | estimated relaxation degree [2] [s⁻¹] | localization at the lipid rafts, Ziapin 2 compared with Ziapin 1 ([3]; primary neuron cultures exposed to compound) | coverage of the cell surface [3] | fraction of compound located in plasma membranes and in lipid rafts [3] | membrane potential response to the light stimulus ([4]; 20 or 200 ms light) | capacity and conductivity of the membrane under light stimulation compared to the values in the dark ([4]; synaptic blockers) | diameter of the area of diffusion and absorption of the molecule by cortical cells ([5]; 1 μl in the somatosensory cortex, fluorescence analysis) | time of response peak following the light stimulus ([5]; LFP, somatosensory cortex) | LFP changes with respect to DMSO alone ([5]; absence of the light stimulus and highest power used (160 mW/mm^2)) | LFP response compared with DMSO ([5]; higher power densities) | cortical activity evaluated in terms of field potentials (LFP) ([5]; optical stimulation 20 and 200 ms, 472 nm laser, different intensities) | LFP response compared with animals treated with DMSO ([5]; stimulations at 25 and 43 mW/mm^2, 20 ms illumination) | modulation of passive and active membrane properties following light stimulation ([4]; compared with Ziapin 2) | trans-cis isomerization reaction in UV-Vis absorption spectra ([1]; 470 nm, FIG. 18)
1 | c1cc[n+](CCCCCCN(CCCCCC[n+]2ccccc2)c2ccc(N=Nc3ccc(N4CCCCCC4)cc3)cc2)cc1 [Ziapin 2] | 470 | 330 | 0.01 | 0.0085 | considerably more marked | about 20% | about 70% | hyperpolarization is followed by a depolarization | significant decrease | about 1 mm | around 200 ms | No significant changes | significantly higher | significant activation | significantly different | – | –
2 | c1cc[n+](CCCCCCNc2ccc(N=Nc3ccc(N4CCCCCC4)cc3)cc2)cc1 [Ziapin 1] | – | – | – | – | – | about 20% | less than 50% | – | – | – | – | – | – | – | – | lower modulation effect | –
3 | O=[N+]([O-])c1ccc(N=Nc2ccc(NCCCCCC[n+]3ccccc3)cc2)cc1 [NO2/1C6Py] | – | – | – | – | – | – | – | – | – | – | – | – | – | – | – | – | not observed

— patent US11401250B2, “Photochromic compounds for use in the treatment of eye disorders” (FONDAZIONE ISTITUTO ITALIANO DI TECNOLOGIA, priority 2018, dated 2022)
